| SMILES | melting point [°C] |
| --- | --- |
| CN(N)c1ccc(C(F)(F)F)cc1[N+](=O)[O-] | 68 to 70 |
| CO[Si](OC)(OC)c1ccccc1 | -25 |
| Cc1cc(I)cnc1NCC(=O)OC(C)(C)C | 99 |
| CC(C)NC(=S)NC(C)C | 144 |
| ON=C1CCCc2nonc21 | 166 to 168 |
| CCCCCCCCCCSCCCCCCCCCC | 27 |
| CCOC(=O)c1[nH]cnc1C | 204 to 206 |
| O=c1oc(=O)c2cc3c(=O)oc(=O)c3cc12 | 283 to 287 |
| O=C(Cl)c1ccsc1 | 50 to 54 |
| CC(=O)c1ccc(Oc2ccccc2)cc1 | 52 to 54 |
| Nc1c(OC2C=CC(N3CCCCCC3=O)=CC2)cc(O)c2c1C(=O)c1ccccc1C2=O (stereo not given) | 164 |
| N#C/C(=N\Nc1cccc(F)c1)c1nc2ccccc2s1 | 196 |
| OC12Cc3ccccc3C(O)(Cc3ccccc31)O2 | 160 to 167 |
| CCN1CCCC1CNC(=O)c1cc(S(=O)(=O)CC)c(N)cc1OC (stereo not given) | 126 |
| Oc1ccc2ccc3cccc4ccc1c2c34 | 180 |
| CNC1=CC(=O)c2ccccc2C1=O | 230 |
| O=C(Cc1ccccc1)c1ccc2c3c(cccc13)CC2 | 114 |
| O=Cc1cccn1S(=O)(=O)c1ccccc1 | 76 to 77 |
| O=Cc1cc([N+](=O)[O-])ccc1F | 58 |
| CCOC(=O)C1=C(C)NC(=O)NC1c1ccccc1 (stereo not given) | 180 |
| COc1ccc(C=CC(=O)O)c(Cl)c1OC | 217 to 218 |
| O=[N+]([O-])c1cc(C(F)(F)F)ccc1CCl | 44 |
| O=[N+]([O-])c1cnc(Cl)c([N+](=O)[O-])c1 | 63 to 66 |

| SMILES | melting point [°C] |
| --- | --- |
| CC1(C)C2CCC(O2)C(Cl)C1O (stereo not given) | 71 to 72 |
| O=[N+]([O-])c1ccc(N/N=C2\Cc3ccccc32)c([N+](=O)[O-])c1 | 203 |
| CC(=O)Oc1ccc(C(c2ccc(OC(C)=O)cc2)c2ccccn2)cc1 | 134 |
| C[C@H](N)C(=O)O | 314 to 316 |
| CCc1ccccc1Cc1ccccc1 | -11 |
| CC(C)c1ccc2cc(C(C)C)ccc2c1 | 69 |
| CCC(CC)Nc1c([N+](=O)[O-])cc(C)c(C)c1[N+](=O)[O-] | 58 |
| CC12CCC(C(=CC(=O)NC(N)=O)C1=O)C2(C)C (stereo not given) | 206 |
| Nc1ccc(Sc2cc(Cl)ccc2Cl)nc1 | 108 to 109 |
| Cc1cc(Br)cnc1F | 62 |
| NC(=O)NN=CC(=O)c1cc(C(=O)C=NNC(N)=O)cc(C(=O)C=NNC(N)=O)c1 | > 300 |
| CCCC(=O)Nc1ccccc1 | 97 |
| Clc1ccc(P(c2ccc(Cl)cc2)c2ccc(Cl)cc2)cc1 | 103 |
| CC(=O)c1cccc(C(C)=O)n1 | 80 |
| CCOC(=O)c1cc2cc(OC)ccc2o1 | 59 to 61 |
| CC(CN)C(=O)O (racemic) | 177 to 181 |
| COc1ccc(CCN2CCC(Nc3nc4ccccc4n3Cc3ccc(F)cc3)CC2)cc1 | 149 |
| ClCc1nnc(-c2ccc3ccccc3c2)o1 | 128 to 130 |
| Oc1cccc2[nH]c3ccccc3c12 | 169 to 173 |
| Cn1cc(I)cn1 | 61 to 67 |
| Cc1nc2cc([N+](=O)[O-])ccc2[nH]1 | 224 |
| CC(C)(C)c1cc(S)cc(C(C)(C)C)c1O | 76 |
| Oc1nc(CCc2ccccc2)nn1-c1ccccc1 | 182 |

| SMILES | melting point [°C] |
| --- | --- |
| NNC(=O)C1SCCN1S(=O)(=O)c1ccc(Cl)cc1 (stereo not given) | 200 to 201 |
| COC(=O)c1cncn1C | 57 |
| CCCCCCCCOCCCCCCCC | -7.6 |
| Cc1cc(O)ncc1[N+](=O)[O-] | 189 |
| CC(C)CC(N)C(=O)Nc1ccc([N+](=O)[O-])cc1 (stereo not given) | 90 |
| ON=C1C2CC3CC(C2)CC1C3 | 150 to 151 |
| CCCCCCCCCCC#N | -6 |
| CN(c1ccccc1)c1ccccc1 | -7.6 |
| O=Cc1c[nH]c2ccc(OCc3ccccc3)cc12 | 241 |
| COc1cc(C=Cc2cc(/C=C/c3ccc(O)c(OC)c3)c([N+](=O)[O-])cc2[N+](=O)[O-])ccc1O | 251 |
| Cc1ccc(Nc2ccc(Nc3ccc(C)cc3)c3c2C(=O)c2ccccc2C3=O)cc1 | 218 |
| Cc1ccc(C(=O)O)cc1C(F)(F)F | 177 |
| CC12CCC3C(=CCc4cc(O)ccc43)C1CCC2O (stereo not given) | 174 |
| O=S(=O)(Nc1cc(F)c(F)cc1F)C(F)(F)F | 58.5 |
| N#CC1=C(N)Oc2ccc(Cl)cc2C1C(C#N)C#N (stereo not given) | 155 to 156 |
| Cn1nc(CC#N)c2c(N)ncnc21 | 135 to 138 |
| CCOC(=O)CCCCCC(=O)OCC | -24 |
| CC(=O)N1C(=O)c2ccccc2C1=O | 137 |
| CC(=O)Nc1ccccc1N=Nc1ccccc1 | 123 |
| N=C1NCCS1 | 85.3 |
| COC(=O)C1=C(C)NC(=S)NC1c1cccc([N+](=O)[O-])c1 (stereo not given) | 247 |
| COc1cc(C)oc(=O)c1 | 86 |
| O=C1CCCN1c1ccc(S(=O)(=O)Cl)cc1 | 107 to 108 |

| SMILES | melting point [°C] |
| --- | --- |
| Oc1c(F)c(F)c(O)c(F)c1F | 172 to 174 |
| CC(O)c1ccc2ccccc2c1 (stereo not given) | 74 |
| O=C1C(=O)c2ccccc2CCc2ccccc21 | 132 |
| CO[Si](OC)(OC)OC | 4.5 |
| NC(=O)C12CCN(CC1)CC2 | 235 to 237 |
| CCCCC(=O)OCCC | -70.7 |
| C=Cc1ccc2c(c1)OCCOCCOCCOCCO2 | 35 to 43 |
| CCCCCC(=O)OC | -71 |
| CCCCNC(=O)COC(=O)c1ccccc1 | 69.5 |
| CC1(C)CC(=O)c2cc(-c3ccccc3)n(Cc3ccc(Cl)cc3)c2C1 | 115 to 117 |
| CC(C)(C)c1cc(C(C)(C)C)c2oc3c(C(C)(C)C)cc(C(C)(C)C)c(=O)c-3nc2c1 | 210 |
| COC(=O)c1sc(SC)c(S(=O)(=O)C(C)C)c1N | 151 to 155 |
| Nc1ccc(Nc2ccc(N)cc2)cc1 | 158 |
| O=S(=O)(O)CCN1CCN(CCS(=O)(=O)O)CC1 | 300 |
| Cc1ccc(-c2ccc(/C=C/C(=O)c3ccc(C)o3)o2)cc1 | 143 |
| Cc1cncc(C)n1 | 47.5 |
| CC(C)=CC(=O)C=C(C)C | 28 |
| O=C1Nc2ccc(I)cc2C1=O | 285 |
| COC(=O)CC(=O)OC(C)(C)C | -10 |
| CCC(=O)N1C(=O)OC[C@@H]1Cc1ccccc1 | 42 to 44 |
| CCN(C#N)CC | -80.6 |
| O=C1CCCc2ccc(Br)cc21 | 78 to 79 |
| N#Cc1ccc(N)c(OC(F)(F)F)c1 | 72 |

| SMILES | melting point [°C] |
| --- | --- |
| Oc1c(Cl)c(Cl)c(O)c(Cl)c1Cl | 239 |
| O=C(NO)c1ccccc1 | 128 |
| COc1ccccc1Oc1ccccc1OC | 79.5 |
| CCOC(CNC1=CC(=O)C=CC1=O)OCC | 70 |
| CCCCc1ccc(/C=N/c2ccc(C(C)=O)cc2)cc1 | 83 to 93 |
| Cc1cc2c(cc1C)C(=O)c1ccccc1C2=O | 211 |
| CC1(C)CC(=O)C2=C(C1)Nc1ccc3ccccc3c1C2c1ccccc1 (stereo not given) | 314 |
| Nc1cc(Cl)ccc1[N+](=O)[O-] | 128 |
| CC1(C)C=C(C(=O)ON2C(=O)CCC2=O)C(C)(C)N1O | 175 to 178 |
| Cc1cc(Br)ccc1S(=O)(=O)Cl | 65 to 67 |
| COc1cc2c(cc1OC)C(c1ccc(C)cc1)N(C(C)=O)CC2 (stereo not given) | 183 to 185 |
| CC(C)C(C)(C)Cl | -10 |
| COc1ccc(C(=O)O)c(Cl)c1OC | 193 to 196 |
| C(=N\c1cc2c(cc1CCc1ccccc1)CC(c1ccccc1)N2)/c1ccccc1 (stereo not given) | 118 |
| O=C(O)c1cccc(Cn2cccn2)c1 | 151 to 152 |
| C1CC2OC2CC1C1CO1 (stereo not given) | -109 |
| NNC(=O)c1cccc(N)c1 | 92 |
| CCCCCCCCCCCCC(Br)C(=O)O (stereo not given) | 42 |
| CN(C)C(=O)C(CCN1CCC(O)(c2ccc(Cl)cc2)CC1)(c1ccccc1)c1ccccc1 | 228 |
| O=[N+]([O-])c1ccc(C=Cc2cccc(CO)n2)o1 | 170 |
| ONc1ccccc1 | 83.5 |
| CCC1OC(=O)C(O)=C1C (stereo not given) | 27 to 30 |
| COc1ccc(CCNc2ccccc2N)cc1OC | 78 to 80 |

| SMILES | melting point [°C] |
| --- | --- |
| O=C(O)c1cc(C(=O)O)c(C(=O)O)cc1C(=O)O | 281 to 284 |
| O=C(O)C=Cc1cccc([N+](=O)[O-])c1 | 202 to 204 |
| CC(C)=C1C2C=CC1c1ccccc12 | 92 |
| CC=CCCl | -65 |
| CCCCCCCCCCCCCCCCCCSSCCCCCCCCCCCCCCCCCC | 62 |
| S=c1[nH]ccn1-c1ccc(Cl)cc1 | 223 to 226 |
| NC(=O)CCC(=O)O | 155 |
| CC1C(=O)C23C4CC5C(C)(C)CCC(=O)C56COC(CC1C2OC(C)(C)O4)C63 (stereo not given) | 252 |
| NC(CCCC(F)(F)F)C(=O)O (stereo not given) | 272 to 274 |
| COc1cc2c(cc1OC)C(C(=O)O)C2 (stereo not given) | 134 to 143 |
| OCc1ccc(-c2cncnc2)cc1 | 127 to 130 |
| COc1ccn(C)c(=O)c1C#N | 202 |
| O=C(O)C(F)C(F)(F)F (stereo not given) | 28.2 to 29.2 |
| O=C1c2ccccc2C(=O)N1c1n[nH]c2ccccc12 | 239 to 241 |
| O=C1CCCCO1 | -13 |
| O=C(O)COc1cccc(CBr)c1 | 126 |
| O=C(/C=C/c1ccc(-c2ccc(Br)cc2)o1)c1ccccc1 | 141 to 142 |
| O=C(O)c1cc(F)c(Cl)nc1Cl | 154 to 155 |
| Cc1ccc(C)n1CC1CCNCC1 | 50 |
| CN(C)c1cccc(C(=O)O)c1 | 151 |

Reference: a melting point compilation (Tetko et al.)
